Laboratory results: patent publication USRE32098E (Research and Education Institute, Inc., priority 1978, dated 1986)
Where a name gives a salt, the structure may show the parent alone. Read-outs that look alike come from different tables or passages of the source.

Assays:
TBG [1] = biological target: T1, TBG (Homo sapiens, UniProt P05543); assay: Displacement of radioactive T3 from TBG; assay type: binding
T1 construct: from tissue; host or cells: serum
T1 sequence (P05543 21-415): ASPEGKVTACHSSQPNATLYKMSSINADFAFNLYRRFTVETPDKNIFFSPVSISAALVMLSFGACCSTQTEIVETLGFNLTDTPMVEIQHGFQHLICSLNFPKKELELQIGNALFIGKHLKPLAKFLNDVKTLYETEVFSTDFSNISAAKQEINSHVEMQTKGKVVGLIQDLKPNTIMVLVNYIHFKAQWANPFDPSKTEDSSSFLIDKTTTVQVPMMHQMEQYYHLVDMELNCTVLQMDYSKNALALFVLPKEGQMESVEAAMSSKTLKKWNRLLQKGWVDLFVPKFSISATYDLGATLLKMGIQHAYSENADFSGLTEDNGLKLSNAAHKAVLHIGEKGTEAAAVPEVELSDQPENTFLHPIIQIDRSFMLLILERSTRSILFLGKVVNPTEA

[2] = biological target: T2, TBG (thyroxine-binding globulin) (Homo sapiens, UniProt P05543); assay: Displacement of radioactive T4 from TBG in a CPBA system; parameters: AMOUNT T4 DISPLACED FROM TBG: unit not given here
T2 construct: from tissue; host or cells: human serum, diluted 1/32
T2 sequence (P05543 21-415): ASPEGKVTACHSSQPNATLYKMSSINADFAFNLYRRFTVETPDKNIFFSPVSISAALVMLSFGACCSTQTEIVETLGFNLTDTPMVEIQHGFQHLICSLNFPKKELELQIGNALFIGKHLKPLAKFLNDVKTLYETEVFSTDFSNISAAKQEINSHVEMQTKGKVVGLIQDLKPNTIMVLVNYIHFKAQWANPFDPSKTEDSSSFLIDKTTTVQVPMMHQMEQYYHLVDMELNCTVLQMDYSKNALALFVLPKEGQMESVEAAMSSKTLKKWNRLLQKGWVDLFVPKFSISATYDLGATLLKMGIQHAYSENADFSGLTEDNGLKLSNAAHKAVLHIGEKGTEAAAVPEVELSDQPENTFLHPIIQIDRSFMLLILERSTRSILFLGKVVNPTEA

TBG [3] = assay: T4 RIA standard curves in barbital buffer and in presence of T4-free serum (FIG. 2); assay type: binding; conditions: 25 ul T4-free serum
[4] = test system: thyroxine binding prealbumin (TBPA); assay: T4 binding by prealbumin
[5] = test system: T3-binding sites on the rabbit antiserum; assay: Affinity for T3-binding sites on the rabbit antiserum
Solubility at pH of RIA = assay type: physicochemical
sheep serum TBG = assay: Adequacy of the amount of ANS in T3 RIA: T3-125I bound to T3-binding antibody in presence of sheep serum and ANS versus plain buffer; conditions: 200 ug ANS
[6] = test system: proteins such as thyroxine-binding globulin (TBG), prealbumin (TBPA) and albumin; conditions: normal human serum; cited from earlier work
TBG [7] = biological target: T1, TBG; assay: Maximal T4-binding capacity of TBG in serum (method of Inada and Sterling); conditions: 7 euthyroid subjects with high serum TBG

O=C1NC(=S)NC1(c1ccccc1)c1ccccc1 [5,5 diphenyl-2 thiohydantoin]
AMOUNT T3 DISPLACED FROM TBG (TBG [1]; 10 ug blocking agent): 7.6 ng | AMOUNT T4 DISPLACED FROM TBG ([2]; 100 ug blocking agent): 6.1

O=S(=O)(O)c1ccc2cc(N=Nc3ccc(Nc4ccccc4)c4ccccc34)c(S(=O)(=O)O)cc2c1 [ANNDS, 3-(4-anilino-1-napthylazo) 2,7-napthalene disulfonic acid]
AMOUNT T3 DISPLACED FROM TBG (TBG [1]; 10 ug blocking agent): 10.4 ng | AMOUNT T4 DISPLACED FROM TBG ([2]; 50 ug blocking agent): > 20

O=S(=O)(O)c1cccc2cccc(Nc3ccccc3)c12 [ANS, 8-anilino-1-napthalene-sulfonic acid]
AMOUNT T3 DISPLACED FROM TBG (TBG [1]): 11.2 ng | T3 displaced from TBG (TBG [1]): 11.2 nanograms (ng) | concentration of T3 in serum up to which all T3 may be displaced (TBG [1]): ≤ 88 ug T3 per 100 ml | displacement of T3 bound to TBG (TBG [1]): displaces nearly all T3 bound to TBG | prevention of binding of radioactive T3 to TBG (TBG [1]): prevents completely the binding of radioactive T3 to TBG | blocking of TBG in serum (TBG [3]): TBG in the serum was adequately blocked | AMOUNT T4 DISPLACED FROM TBG [2]: 18 | T4 displaced from TBG [2]: 18 nanograms (ng) | concentration of T4 in serum up to which all T4 is displaced [2]: ≤ 72 ug per 100 ml | effect on T4 binding by prealbumin [4]: affected | affinity for T3-binding sites on the rabbit antiserum [5]: negligible affinity | solubility compared with Dilantin and tetrachlorthyronine (Solubility at pH of RIA): better solubility at pH of RIA | neutralization of the inhibiting effect of sheep serum TBG (sheep serum TBG): almost complete neutralization | radioactivity bound to antibody relative to that in plain buffer (sheep serum TBG; with sheep serum, no stable T3): 95-98%

CN(C)CCCN1c2ccccc2Sc2ccc(Cl)cc21 [Chlorpromazine HCl]
AMOUNT T3 DISPLACED FROM TBG (TBG [1]): 6.6 ng | AMOUNT T4 DISPLACED FROM TBG [2]: 5.6

CN1C(=O)CN=C(c2ccccc2)c2cc(Cl)ccc21 [Diazepam]
AMOUNT T3 DISPLACED FROM TBG (TBG [1]): 7.0 ng | AMOUNT T4 DISPLACED FROM TBG [2]: 6.3

O=C1NC(=O)C(c2ccccc2)(c2ccccc2)N1 [Dilantin]
AMOUNT T4 DISPLACED FROM TBG ([2]; 100 ug blocking agent): 5.7

CN(C)CCC=C1c2ccccc2COc2ccccc21 [Doxepin HCl]
AMOUNT T3 DISPLACED FROM TBG (TBG [1]): 10.8 ng | AMOUNT T4 DISPLACED FROM TBG [2]: 8.2

CC(=O)NCCOC(=O)C(Oc1cccc(C(F)(F)F)c1)c1ccc(Cl)cc1 (centres unmarked) [Halofenate]
AMOUNT T3 DISPLACED FROM TBG (TBG [1]; 10 ug blocking agent): 5.2 ng | AMOUNT T4 DISPLACED FROM TBG ([2]; 100 ug blocking agent): 8.4

CN1CCN(CCCN2c3ccccc3Sc3ccc(Cl)cc32)CC1 [Prochlorperazine]
AMOUNT T3 DISPLACED FROM TBG (TBG [1]): 7.0 ng | AMOUNT T4 DISPLACED FROM TBG [2]: 7.2

O=C([O-])c1ccccc1O.[Na+] [Sodium Salicylate]
AMOUNT T3 DISPLACED FROM TBG (TBG [1]): 11.0 ng | AMOUNT T4 DISPLACED FROM TBG [2]: 6.1 | effect on T4 binding by prealbumin [4]: affected

N[C@@H](Cc1cc(I)c(Oc2ccc(O)c(I)c2)c(I)c1)C(=O)O [T3, triiodothyronine]
present as unbound (dialyzable or free) hormone [6]: 0.3%

C[CH2][Hg][S]c1ccccc1C(=O)[O-].[Na+] [Thimerosal]
AMOUNT T3 DISPLACED FROM TBG (TBG [1]): 8.0 ng | AMOUNT T4 DISPLACED FROM TBG [2]: 8.4

O=S(=O)(O)c1cccc2ccccc12 [αNapthalene Sulfonic Acid]
AMOUNT T3 DISPLACED FROM TBG (TBG [1]; 100 ug blocking agent): 7.0 ng | AMOUNT T4 DISPLACED FROM TBG ([2]; 100 ug blocking agent): 3.0

B1: TBG: thyroxine-binding globulin, serum protein binding thyroid hormones (protein, UniProt P05543 21-415, looked up)
Thyroxine-binding globulin: ASPEGKVTACHSSQPNATLYKMSSINADFAFNLYRRFTVETPDKNIFFSPVSISAALVMLSFGACCSTQTEIVETLGFNLTDTPMVEIQHGFQHLICSLNFPKKELELQIGNALFIGKHLKPLAKFLNDVKTLYETEVFSTDFSNISAAKQEINSHVEMQTKGKVVGLIQDLKPNTIMVLVNYIHFKAQWANPFDPSKTEDSSSFLIDKTTTVQVPMMHQMEQYYHLVDMELNCTVLQMDYSKNALALFVLPKEGQMESVEAAMSSKTLKKWNRLLQKGWVDLFVPKFSISATYDLGATLLKMGIQHAYSENADFSGLTEDNGLKLSNAAHKAVLHIGEKGTEAAAVPEVELSDQPENTFLHPIIQIDRSFMLLILERSTRSILFLGKVVNPTEA
maximal T4-binding capacity of TBG (mean) (TBG [7]): 46.9 ug per 100 ml
